Measured values as given in paper PMC4503694, “The Human Autoantibody Response to Apolipoprotein A-I Is Focused on the C-Terminal Helix: A New Rationale for Diagnosis and Treatment of Cardiovascular Disease?” (PLoS ONE, 2015).

How the values were obtained:
[1] = test system: anti-ApoA-I autoantibodies in pooled patient plasma; test: Capture ELISA: immunoreactivity of pooled anti-ApoA-I-positive patient plasma to coated peptides; type: binding, human; conditions: pooled plasma of anti-ApoA-I-positive patients; peptide as coating antigen; mean ± SD, n = 3 (Fig 1a)
Protocol: Anti-ApoA-I IgG autoantibodies in plasma were measured as described previously. Briefly, Maxisorp plates (Nunc) were coated with purified and delipidated human ApoA-I, diluted in carbonate buffer pH 9.7 (20 μg/ml; 50 μl/well), for 1 h at 37°C. The same procedure was used for the engineered peptides. After three washes with PBS/ 2% (w/v) BSA (100 μl/well), all wells were blocked for 1 h with PBS/ 2% (w/v) BSA at 37°C. Samples were diluted 1:50 in PBS/ 2% (w/v) BSA and incubated for 60 min at 37°C. Samples at the same dilution were also added to a non-coated well to assess individual non-specific binding. After six further washes, 50 μl/well of alkaline-phosphatase conjugated anti-(human IgG) (Sigma-Aldrich), diluted 1:1000 in PBS/ 2% (w/v) BSA, was incubated for 1 h at 37°C. After six more washes (150 μl/well) with PBS/ 2% (w/v) BSA, the phosphatase substrate p-nitrophenyl phosphate (50μl/well; 1mg/ml; Sigma—Aldrich) dissolved in 4.8% (w/v) diethanolamine (pH 9.8) was added. Each sample was tested in duplicate and A 405nm was determined after 20 min of incubation at 37°C (VERSAMax; MolecularDevices). The corresponding non-specific binding was subtracted from the mean absorbance for each sample. As in previous studies, positive immunoreactivity of human samples to ApoA-I was prospectively defined by an index >37%. This value was also used to define positive immunoreactivity to mimetic peptides, as defined upon receiver operating characteristic (ROC) curve analyses, and shown to provide an identical prevalence of positive immunoreactivity levels 11% […] to native ApoA-1 and 11% (14/132) to F3L1 peptide (data not shown). Repeatability and reproducibility were determined at two levels. At a high level (A 405nm = 1.2, i.e. twice the cut-off value), the intra- and inter-assay coefficients of variation were 10% (n = 10) and 17% (n = 10) respectively. At the cut-off level, the intra- and inter-assay coefficients of variation were 16% (n = 10) and 12% (n = 8) respectively.
In order to characterize the anti-ApoA-I autoantibody response, we chemically synthesized a panel of peptides corresponding to the different alpha-helical regions in the protein (Table 1). Each of the two longest helical regions, C and D, were synthesized as two separate peptides (C1, C2, D1, D2) whose sequences are located on either side of centrally located proline residues (Pro^121 for Region C, Pro^165 for Region D (Table 1)). The synthetic peptides were then used as coating antigens in a capture ELISA experiment to compare their immunoreactivity against pooled plasma from a subset of patients from our acute chest pain cohort that had previously shown to be positive for anti-ApoA-I autoantibodies (Fig 1a).
(§1) Fig 1 The anti-ApoA-I autoantibody response is strongly biased towards the C-terminal alpha-helical region. ELISA experiments were carried out using a set of ApoA-I-derived peptides (Table 1). a. Capture ELISA assay to determine the immunoreactivity of plasma pooled from patients known to be positive for anti-ApoA-I autoantibodies against the set of peptides. Specific ELISA signals were calculated as [signal in well]-[mean background signal (uncoated well)]. Results are expressed as mean ± SD (n = 3) b and c. Competition ELISA to determine the capacity of the set of peptides to block binding of anti-ApoA-I antibodies from either pooled patient plasma (b) or goat polyclonal IgG (c) to immobilized ApoA-I. Plasma or antibody was preincubated (2 h, room temperature) with peptides at the indicated concentrations prior to addition to assay wells. Percent maximal ELISA signals were calculated as 100 × ([signal in well]-[mean background signal (uncoated well)])/([mean maximal signal (no peptide)]-[mean background signal]). Results are expressed as mean ± SD (n = 3).

[2] = test system: anti-ApoA-I antibodies from pooled patient plasma; test: Competition ELISA: peptides block binding of antibodies from pooled patient plasma to immobilized ApoA-I; parameters: species or system human; conditions: pooled patient plasma preincubated 2 h at room temperature with peptide; wells coated with intact ApoA-I (Fig 1b)
Protocol: as §1, with “3). […] In contrast, when pre-incubated with goat polyclonal anti-ApoA-I IgG, none of the peptides, including Peptide F, decreased signal inhibition by 15% at the highest concentration (Fig 1c). […]” for “3).”

[3] = test system: goat polyclonal anti-ApoA-I IgG; test: Competition ELISA: peptides block binding of goat polyclonal IgG to immobilized ApoA-I; conditions: goat polyclonal anti-ApoA-I IgG preincubated with peptide; wells coated with ApoA-I (Fig 1c)
Protocol: as §1, with “3). […] In contrast, when pre-incubated with goat polyclonal anti-ApoA-I IgG, none of the peptides, including Peptide F, decreased signal inhibition by 15% at the highest concentration (Fig 1c). […]” for “3).”

[4] = test system: human monocyte-derived macrophages; test: Anti-ApoA-I IgG-mediated IL-6 and TNF-α release from human monocyte-derived macrophages; type: cell-based; conditions: peptide preincubated with anti-ApoA-I IgG 2 h at room temperature; highest concentration 1 mg/mL (Fig 5, 6)
Protocol: Human monocytes were isolated from buffy coats from healthy donors at the Geneva University Hospitals Blood Transfusion Center and differentiated into macrophages by 24 h incubation with IFN-γ (500 U/ml) in complete RPMI-1640 culture medium (10% heat-inactivated FCS, 50 μg/ml streptomycin, 50 U/ml penicillin, 2 mM L-glutamine), as previously described. Assays of anti-ApoA-I IgG-mediated release of IL-6 and TNF-α from human monocyte-derived macrophages was carried out as described previously using a previously determined optimal concentration of polyclonal goat anti-ApoA-I IgG (40 μg/ml). Endotoxin contamination in the assay was excluded using the limulus amebocyte lysate Endochrome assay. Where indicated, anti-ApoA-I IgG was pre-incubated with peptide […] (1 mg/mL) for 2 h at room temperature prior addition to the cells. Each experiment was performed on cells from […] different healthy blood donors. […] We next used a Luminex assay to measure the capacity of peptide […] to inhibit endotoxin-free anti-ApoA-I IgG-mediated proinflammatory cytokine release in human monocyte-derived macrophages (Fig 5a and 5b). As expected from previously published work, anti-ApoA-I IgG elicited a significant increase in production of both in IL-6 and TNF-α when compared to control IgG (Ctl IgG; p<0.0001 for both cytokines). […] We were unable to measure the inhibitory activity of intact purified and delipidated ApoA-I in this assay because traces of endotoxin elicit significant levels of background cytokine secretion (NV and SP, unpublished observations).  Fig 5 Peptide […] inhibits anti-ApoA-I IgG-mediated release of proinflammatory cytokines from cultured human monocyte-derived macrophages. Release of proinflammatory cytokines TNF-α (a) IL-6 (b) from human monocyte-derived macrophages induced by endotoxin-free goat polyclonal anti-ApoA-I IgG was determined with or without preincubation (2 h at room temperature) of the anti-ApoA-I IgG with peptide […] (1 mg/mL) and the corresponding scrambled peptide (Scr Pept). […] Anti-ApoA-I IgG was incubated with the indicated […] concentrations (preincubation 2 h at room temperature) prior to addition to cultured human monocyte-derived macrophages. Levels of proinflammatory cytokines were determined after 24 h culture. Experiments were repeated using cells from three different healthy donors, with results expressed as median, interquartile range (IQR) and range.

[5] = test system: anti-ApoA-I antibodies in plasma samples from three different patients; test: Competition ELISA with plasma of three individual anti-ApoA-I-positive patients; type: binding, human; conditions: preincubated 2 h at room temperature with peptide, n = 3 (Fig 3)
Protocol: We next performed ELISA assays using plasma samples from three different anti-ApoA-I autoantibody-positive patients from the cohort pre-incubated with Peptide F, a scrambled version of Peptide F (Table 1), or the stapled peptide F3L1 prior to addition to wells coated with ApoA-I (Fig 3).
Plasma samples were preincubated (2 h, room temperature) with peptides at the indicated concentrations prior to addition to assay wells. Percent maximal ELISA signals were calculated as 100 × ([signal in well]-[mean background signal (uncoated well)])/ ([mean maximal signal (no peptide)]-[mean background signal]). Results are expressed as mean ± SD (n = 3).

RAW cells = test: Anti-ApoA-I IgG-induced TNF-α release in RAW mouse macrophage cell line; type: cell-based; conditions: anti-ApoA-I IgG 100 μg/ml preincubated 2 h with peptide 100 to 0.06 μg/ml; 24 h stimulation; ELISA; n = 3 (Fig 7)
Protocol: Raw cells were seeded in 96-well plates at 2 × 10^5 cells/well in DMEM culture medium (10% heat-inactivated FCS, 50 μg/ml streptomycin, 50 U/ml penicillin) for 24 h. Anti-Apo-A1 IgG (100 μg/ml) were incubated with peptides across a concentration range from 100 μg/ml to 0.06 μg/ml for 2 h at room temperature prior addition to cells. After 24 h stimulation, mouse TNF-α was quantified in the cell supernatants by ELISA according to manufacturer’s instructions (R&D system, MN).
Fig 7 Comparing the inhibitory potency of Peptide F and F3L1 on anti-ApoA-I IgG-induced TNF-α. Anti-ApoA-I IgG was incubated with the indicated peptide concentrations (preincubation 2 h at room temperature) prior to addition to cultured RAW cells. Levels of proinflammatory cytokines (TNF-α) were determined after 24 h culture. Mean levels (n = 3) are shown with error bars indicating the range.

Row | Substance | plasma immunoreactivity (specific ELISA signal) to coated peptide [1] | other results
1 | YSDELRQRLAARLEALKENGGA [Peptide D2, ApoA-I-derived peptide, residues 166–187] | low signals | 
2 | LGEEMRDRARAHVDALRTHLAPYSDEL [Peptide D1, ApoA-I-derived peptide, residues 143–164] | low signals | 
3 | GLLPVLESFKVSFLSALEEYTKKLNT [Peptide F, ApoA-I-derived peptide, residues 220–242, C-terminal alpha-helix] | strongest signal | maximal inhibition plateau of total anti-ApoA-I signal [2]: approximately 50%; peptide concentration above which inhibition of ELISA signal is seen [2]: above 3 μM; decrease of ELISA signal at the highest peptide concentration [3]: < 15%; inhibition of anti-ApoA-I IgG-induced TNF-α and IL-6 release [4]: comparable to that of F3L1
4 | B: ApoA-I-derived peptide, residues 50–84 (WDSVTSTFSKLREQLGPVTQEFWDNLEKETEGLRQ; UniProt P02647 74-108, looked up, fragment) | intermediate signals | 
5 | KELYLLKFTVESKVGSTELPLNFSLA [F (scrambled), scrambled version of Peptide F, control peptide, reference compound] |  | inhibition of binding of anti-ApoA-I IgG to immobilized ApoA-I [5]: No inhibition was detectable; inhibition of anti-ApoA-I IgG-induced TNF-α and IL-6 release [4]: did not inhibit; inhibitory potency on anti-ApoA-I IgG-induced TNF-α (RAW cells): no detectable inhibitory activity
6 | C1: ApoA-I-derived peptide, residues 97–120 (VQPYLDDFQKKWQEEMELYRQKVE; UniProt P02647 121-144, looked up, fragment) [Peptide C1] | low signals | 
7 | E: ApoA-I-derived peptide, residues 190–213 (AEYHAKATEHLSTLSEKAKPALED; UniProt P02647 214-237, looked up, fragment) | low signals | 
8 | C2: ApoA-I-derived peptide, residues 122–142 (LRAELQEGARQKLHELQEKLS; UniProt P02647 146-166, looked up, fragment) [Peptide C2] | intermediate signals | 
9 | A: ApoA-I-derived peptide, residues 10–39 (RVKDLATVYVDVLKDSGRDYVSQFEGSALG; UniProt P02647 34-63, looked up, fragment) | low signals | 
